Patent US11524966B1 (Valo Early Discovery, Inc., priority 2017, dated 2022)
pIC50: −log10 of the molar value.

Molecular target: T1, USP25 (USP25-His6, Boston Biochem E-546) (Homo sapiens, UniProt Q9UHP3)
T1 construct: His6; purchased Boston Biochem E-546
T1 sequence (Q9UHP3 1-1055): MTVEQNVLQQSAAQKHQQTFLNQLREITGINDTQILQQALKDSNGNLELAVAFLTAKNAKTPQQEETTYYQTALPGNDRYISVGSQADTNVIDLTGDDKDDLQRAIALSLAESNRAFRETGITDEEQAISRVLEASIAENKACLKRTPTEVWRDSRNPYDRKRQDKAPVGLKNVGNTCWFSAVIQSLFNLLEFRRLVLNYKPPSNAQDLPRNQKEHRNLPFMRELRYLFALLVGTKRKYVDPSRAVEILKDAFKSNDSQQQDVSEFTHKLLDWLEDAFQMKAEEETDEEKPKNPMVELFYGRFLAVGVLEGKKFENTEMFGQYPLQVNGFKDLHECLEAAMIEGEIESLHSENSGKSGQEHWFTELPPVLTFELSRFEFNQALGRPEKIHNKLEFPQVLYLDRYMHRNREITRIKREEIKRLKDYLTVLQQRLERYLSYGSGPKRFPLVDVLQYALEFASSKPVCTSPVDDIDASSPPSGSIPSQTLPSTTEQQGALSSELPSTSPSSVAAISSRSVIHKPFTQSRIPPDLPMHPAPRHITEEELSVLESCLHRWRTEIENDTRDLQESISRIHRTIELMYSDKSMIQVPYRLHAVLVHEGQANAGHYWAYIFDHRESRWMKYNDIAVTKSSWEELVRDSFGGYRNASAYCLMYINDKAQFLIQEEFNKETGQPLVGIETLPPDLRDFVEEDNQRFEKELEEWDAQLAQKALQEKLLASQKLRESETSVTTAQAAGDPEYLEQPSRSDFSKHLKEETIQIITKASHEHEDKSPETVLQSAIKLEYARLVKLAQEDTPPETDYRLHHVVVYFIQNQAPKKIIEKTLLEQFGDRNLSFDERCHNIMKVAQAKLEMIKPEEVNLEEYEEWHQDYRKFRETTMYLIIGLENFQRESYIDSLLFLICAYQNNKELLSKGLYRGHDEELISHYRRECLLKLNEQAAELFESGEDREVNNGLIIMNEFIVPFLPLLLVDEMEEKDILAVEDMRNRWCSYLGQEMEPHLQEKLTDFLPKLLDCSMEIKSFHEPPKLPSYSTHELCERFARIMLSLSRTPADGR
Test: Ubiquitin-Rhodamine 110 Assay for USP25 Activity, Example A-2
Format: biochemical
Settings: Ubiquitin-Rhodamine 110 assay, Example A-2; read-out: USP25 A-2 IC50 range
Summary of the method: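 75 pM USP25-His6 was preincubated 30 min with compound (10-point 3-fold series, 25 μM–1.3 nM) in pH 8.0 Tris buffer with BME, BGG and Triton X-100. Then 25 nM Ub-Rh110 (<<Km) was added for 45 min at room temperature, stopped with citric acid, fluorescence read at 485/535 nm, IC50 by 4-parameter fit.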

For Cc1ccc2c(N)c(C(=O)N[C@H]3COc4cc(N5C[C@@H](N)[C@]6(CCCO6)C5)ccc4C3)sc2n1 [Example 309, 3-amino-N-[(3R)-7-[(5S,9R)-9-amino-1-oxa-7-azaspiro[4.4]nonan-7-yl]-3,4-dihydro-2H-1-benzopyran-3-yl]-6-methylthieno[2,3-b]pyridine-2-carboxamide], the pIC50 was 6.70 to 7.30.
Compound Cc1ccc2c(N)c(C(=O)N[C@H]3COc4cc(N5CC6(C5)OCC[C@H]6N)ccc4C3)sc2n1 [Example 337, 3-amino-N-[(3R)-7-[(8R)-8-amino-5-oxa-2-azaspiro[3.4]octan-2-yl]-3,4-dihydro-2H-1-benzopyran-3-yl]-6-methylthieno[2,3-b]pyridine-2-carboxamide] has a pIC50 of 5.70 to 6.70.
For Cc1ccc2c(N)c(C(=O)N[C@H]3COc4cc(N5C[C@H](N)[C@@]6(CCCO6)C5)ccc4C3)sc2n1 [Example 310, 3-amino-N-[(3R)-7-[(5R,9S)-9-amino-1-oxa-7-azaspiro[4.4]nonan-7-yl]-3,4-dihydro-2H-1-benzopyran-3-yl]-6-methylthieno[2,3-b]pyridine-2-carboxamide], the pIC50 was 5.70 to 6.70.
For CO[C@H]1CCN(c2ccc3c(n2)CC[C@H](NC(=O)c2sc4nc(C)ccc4c2N)C3)C[C@@H]1N (single isomer, unassigned) [Example 315], the pIC50 was 5.70 to 6.70.
Cc1ccc2c(N)c(C(=O)N[C@H]3COc4cc(N5C[C@H]6CCN[C@H]6C5)ccc4C3)sc2n1 [Example 305, N-[(3R)-7-[(3aR,6aR)-octahydropyrrolo[3,4-b]pyrrol-5-yl]-3,4-dihydro-2H-1-benzopyran-3-yl]-3-amino-6-methylthieno[2,3-b]pyridine-2-carboxamide] was tested, and the pIC50 was 6.70 to 7.30.
In the case of Cc1ccc2c(N)c(C(=O)N[C@H]3COc4cc(N5C[C@@H](F)[C@@H](N)C5)ccc4C3)sc2n1 (single isomer, unassigned) [Example 3-6], the pIC50 was 5.70 to 6.70.
For Cc1ccc2c(N)c(C(=O)N[C@H]3COc4nc(N5C[C@H](OC(C)C)[C@@H](N)C5)ccc4C3)sc2n1 [Example 287, 3-amino-N-[(3R)-7-[(3S,4S)-3-amino-4-(propan-2-yloxy)pyrrolidin-1-yl]-2H,3H,4H-pyrano[2,3-b]pyridin-3-yl]-6-methylthieno[2,3-b]pyridine-2-carboxamide], the pIC50 was under 5.70.
For CO[C@]1(C)CN(c2ccc3c(n2)OC[C@H](NC(=O)c2sc4nc(C)ccc4c2N)C3)C[C@H]1N [Example 326, 3-amino-N-[(3R)-7-[(3R,4R)-4-amino-3-methoxy-3-methylpyrrolidin-1-yl]-2H,3H,4H-pyrano[2,3-b]pyridin-3-yl]-6-methylthieno[2,3-b]pyridine-2-carboxamide], the pIC50 was under 5.70.
CO[C@H]1[C@H](N)CN(c2ccc3c(c2)OC[C@H](NC(=O)c2sc4nc(C)ccc4c2N)C3)[C@H]1C [Example 334, 3-amino-N-[(3R)-7-[(2S,3S,4R)-4-amino-3-methoxy-2-methylpyrrolidin-1-yl]-3,4-dihydro-2H-1-benzopyran-3-yl]-6-methylthieno[2,3-b]pyridine-2-carboxamide] was tested, and the pIC50 was 7.30 to 9.00.
Compound CCOC[C@H]1CN(c2ccc3c(c2)OC[C@H](NC(=O)c2sc4nc(C)ccc4c2N)C3)C[C@H]1N [Example 314, 3-amino-N-[(3R)-7-[(3S,4S)-3-amino-4-(ethoxymethyl)pyrrolidin-1-yl]-3,4-dihydro-2H-1-benzopyran-3-yl]-6-methylthieno[2,3-b]pyridine-2-carboxamide] has a pIC50 of 6.70 to 7.30.
CCOC1CN(c2ccc3c(c2)OC[C@H](NC(=O)c2sc4nc(C)cc(C)c4c2N)C3)C[C@@H]1N (stereo in doubt) [Example 323, 3-amino-N-[(3R)-7-[(3S,4R)-3-amino-4-ethoxypyrrolidin-1-yl]-3,4-dihydro-2H-1-benzopyran-3-yl]-4,6-dimethylthieno[2,3-b]pyridine-2-carboxamide] was tested, and the pIC50 was 6.70 to 7.30.
Work on CO[C@@]12CNC[C@@H]1CN(c1ccc3c(c1)OC[C@H](NC(=O)c1sc4nc(C)ccc4c1N)C3)C2 [Example 292, N-[(3R)-7-[(3aR,6aR)-3a-methoxy-octahydropyrrolo[3,4-c]pyrrol-2-yl]-3,4-dihydro-2H-1-benzopyran-3-yl]-3-amino-6-methylthieno[2,3-b]pyridine-2-carboxamide] yielded a pIC50 of 5.70 to 6.70.
With CO[C@H]1[C@@H](C)N(c2ccc3c(c2)OC[C@H](NC(=O)c2sc4nc(C)ccc4c2N)C3)C[C@@H]1N [Example 336, 3-amino-N-[(3R)-7-[(2R,3R,4S)-4-amino-3-methoxy-2-methylpyrrolidin-1-yl]-3,4-dihydro-2H-1-benzopyran-3-yl]-6-methylthieno[2,3-b]pyridine-2-carboxamide] the pIC50 was 5.70 to 6.70.
Compound Cc1ccc2c(N)c(C(=O)N[C@H]3CCc4nc(N5C[C@H](OC6CCC6)[C@@H](N)C5)ccc4C3)sc2n1 [Example 285, 3-amino-N-[(6S)-2-[(3S,4S)-3-amino-4-cyclobutoxypyrrolidin-1-yl]-5,6,7,8-tetrahydroquinolin-6-yl]-6-methylthieno[2,3-b]pyridine-2-carboxamide] has a pIC50 of under 5.70.
COC[C@H]1CN(c2nc3c(cc2F)C[C@H](NC(=O)c2sc4nc(C)ccc4c2N)CC3)C[C@H]1N (single isomer, unassigned) [Example 303] gave a pIC50 of under 5.70.
With CN[C@@H]1CN(c2ccc3c(n2)CC[C@H](NC(=O)c2sc4nc(C)ccc4c2N)C3)C[C@]1(C)O [Example 332, 3-amino-N-[(6S)-2-[(3S,4R)-3-hydroxy-3-methyl-4-(methylamino)pyrrolidin-1-yl]-5,6,7,8-tetrahydroquinolin-6-yl]-6-methylthieno[2,3-b]pyridine-2-carboxamide] the pIC50 was under 5.70.
In the case of CN[C@H]1CN(c2ccc3c(n2)CC[C@H](NC(=O)c2sc4nc(C)ccc4c2N)C3)C[C@@]1(C)O [Example 331, 3-amino-N-[(6S)-2-[(3R,4S)-3-hydroxy-3-methyl-4-(methylamino)pyrrolidin-1-yl]-5,6,7,8-tetrahydroquinolin-6-yl]-6-methylthieno[2,3-b]pyridine-2-carboxamide], the pIC50 was under 5.70.
Work on CCO[C@H]1CN(c2ccc3c(c2)OC[C@H](NC(=O)c2sc4nc(C)cc(C)c4c2N)C3)C[C@H]1N [Example 324, 3-amino-N-[(3R)-7-[(3R,4S)-3-amino-4-ethoxypyrrolidin-1-yl]-3,4-dihydro-2H-1-benzopyran-3-yl]-4,6-dimethylthieno[2,3-b]pyridine-2-carboxamide] yielded a pIC50 of 5.70 to 6.70.
COC[C@]1(C)CN(c2ccc3c(n2)CC[C@H](NC(=O)c2sc4nc(C)ccc4c2N)C3)C[C@H]1N [Example 344, 3-amino-N-[(6S)-2-[(3R,4S)-4-amino-3-(methoxymethyl)-3-methylpyrrolidin-1-yl]-5,6,7,8-tetrahydroquinolin-6-yl]-6-methylthieno[2,3-b]pyridine-2-carboxamide] gave a pIC50 of 5.70 to 6.70.
Compound N#Cc1c(N2CC3CCC(C2)N3)cc2c(c1F)C[C@@H](NC(=O)c1cnc3c(c1)[C@@H]1C[C@@H]1CN3)CO2 [Example 264, (6aS,7aR)-N-[(3R)-6-cyano-7-{3,8-diazabicyclo[3.2.1]octan-3-yl}-5-fluoro-3,4-dihydro-2H-1-benzopyran-3-yl]-5H,6H,6aH,7H,7aH-cyclopropa[c]1,8-naphthyridine-2-carboxamide] has a pIC50 of 7.30 to 9.00.
CO[C@H]1CN(c2ccc3c(n2)CC[C@H](NC(=O)c2sc4nc(C)cc(C)c4c2N)C3)C[C@@H]1NC(C)=O [Example 293, 3-amino-N-[(6S)-2-[(3S,4S)-3-acetamido-4-methoxypyrrolidin-1-yl]-5,6,7,8-tetrahydroquinolin-6-yl]-4,6-dimethylthieno[2,3-b]pyridine-2-carboxamide] was tested, and the pIC50 was under 5.70.
In the case of CCOC[C@@H]1CN(c2ccc3c(c2)OC[C@H](NC(=O)c2sc4nc(C)ccc4c2N)C3)C[C@@H]1N [Example 313, 3-amino-N-[(3R)-7-[(3R,4R)-3-amino-4-(ethoxymethyl)pyrrolidin-1-yl]-3,4-dihydro-2H-1-benzopyran-3-yl]-6-methylthieno[2,3-b]pyridine-2-carboxamide], the pIC50 was 5.70 to 6.70.
For CO[C@H]1CN(c2ccc3c(n2)OC[C@H](NC(=O)c2sc4nc(C)cc(C)c4c2N)C3)C[C@@H]1N [Example 286, 3-amino-N-[(3R)-7-[(3S,4S)-3-amino-4-methoxypyrrolidin-1-yl]-2H,3H,4H-pyrano[2,3-b]pyridin-3-yl]-4,6-dimethylthieno[2,3-b]pyridine-2-carboxamide], the pIC50 was under 5.70.
